Measurements from paper PMC11845477, “Exploring the principles behind antibiotics with limited resistance” (Nature Communications, 2025).
Several values for one entry are separate records, joined by “and”; a condition that tells them apart may be missing. Identical values can stand only once. Where a SMILES comes first, the peptide text is derived from it. Bridges are numbered along the chain shown (N, C = ends). [ ]: non-standard residue; d: D form. The star is where a group is joined. X2 = CC[C@H](C)CCCCC(=O)*; Dab = NCC[C@H](N)C(=O)O

Experiments:
A. baumannii = experiment: Bacterial survival at 10xMIC for 4 hours; format: cell-based, Acinetobacter baumannii; conditions: for Survival rate (log10): Acinetobacter baumannii, survival at 10xMIC for 4 hours, single replicates, (fig 9a source data)
Protocol: We employed image analysis to quantify bacterial survival under fixed antibiotic concentrations (10xMIC for 4 hours) on E. coli, A. baumannii, K. pneumoniae, and P. aeruginosa. […] Survival rate was quantified by calculating the ratio of the viable cells after antibiotic treatment and the total initial viable cell count.
Fig. 9 Killing kinetics of the studied antibiotics. a Bacterial survival rate in response to toxic antibiotic exposure. […] The bars indicate the survival rate (log10) compared to the untreated initial viable cell count (see “Methods”). Data are presented as mean values of 5 biological replicates ± SEM. The antibiotic group differentiation is denoted by color. […] Survival was estimated by measuring cell viability (colony-forming units/ml) of 2 biologically independent strains following a 4-hour exposure to different concentrations of 16 antibiotics on E. coli ATCC25922 (for further details, see “Methods”). The antibiotic concentration that kills 99.9% of the E. coli population is indicated as a vertical dotted line (see Supplementary Data 5). Error bars represent standard error calculated from the colony counts by Poisson’s model. A Hill function was fitted to the dose-response data from two biological replicates, producing sigmoidal curves (Supplementary Data 5). The Hill coefficient reflects how steeply the survival rate decreases in response to increasing antibiotic concentration ([…]). […] X-axis label colors indicate mode of action groups. For detailed information on antibiotic and bacterial species, see Supplementary Data 1. Source data are provided as a Source Data file.
In this current study, the killing kinetics of each antibiotic was measured according to a previously established experimental protocol[62] with minor modifications. During this assay, the bacterial cultures were exposed to antibiotics in 96-well assay plates and their viability after 4 hours of exposure was quantified by two methods: i) microplating and colony counting or ii) fluorescent staining of cells and counting of the fluorescent units.
Specifically, these experiments were performed in the following steps: (1) Preparation of bacterial stocks. Single colonies from each strain were isolated and grown overnight in MHB medium at 37 °C, 160 rpm. In case of the fluorescently tagged E. coli strains, the medium was supplemented with 10 μg/mL chloramphenicol, to maintain the pZS2R plasmid. Overnight cultures were diluted 1:5000 and grown to an optical density at 600 nm (OD600) of 0.25. These cultures were concentrated by centrifugation and small aliquots of 50 μL containing ~2.2 × 10^9 cells were frozen in glycerol (stored at −80 °C). (2) Preparing assay plates with antibiotics. 96-well plates were filled with 235 μL MHB and supplemented with antibiotics using an automated digital dispenser (D300e, Tecan). In the case of SCH79797, we used minimal media. […] For testing the clearance efficacy of each antibiotic at a single lethal dose, the 10x of the MIC for each antibiotic-strain pair were prepared in at least three replicates. (3) Antibiotic exposure. During the dose response assay, frozen cultures of the E. coli strains expressing YFP and mCherry were thawed and mixed at a 1:1 ratio, diluted 1:1000 in 30 mL MHB and incubated for 45 min at 37 °C and 160 rpm. During the single-dose assay, the frozen cultures of experimental strains (E. coli, K. pneumoniae, A. baumannii) were also thawed and diluted 1:1000 in 30 mL MHB and incubated at 37 °C to reach an OD of 0.25 and 160 rpm. Following this incubation phase, these bacterial cultures were then aliquoted into the 96-well deep-well antibiotic plates (15 μL culture; total volume of 250 μL) at an inoculum density of about 10^7 CFU.

[1] = test system: polymyxin B-resistant lines of A. baumannii (AB-SEN); experiment: Cross-resistance of polymyxin B resistant evolved lines, relative MIC; format: cell-based, Acinetobacter baumannii
From the text: (§1) To further investigate potential overlaps in resistance mechanisms, we examined the extent of cross-resistance between polymyxin B and other antibiotics that target the bacterial membrane.
(§2) Fig. 7 Cross-resistance of polymyxin B resistant lines to ST and DT permeabilizer antibiotics. […] 3 independently evolved lines from each investigated species were studied, including E. coli (EC), K. pneumoniae (KP), A. baumannii (AB), and P. aeruginosa (PA). Gray color of the main heatmap indicates combinations not tested due to intrinsic resistance of ancestor strain. The additional heatmap to the right depicts genes mutated in each polymyxin B-adapted line and their involvement in specific cellular processes based on KEGG (Kyoto Encyclopedia of Genes and Genomes) and COG (Clusters of Orthologous Genes) databases. The distances between antibiotics were computed using the Euclidean distance method based on the log-transformed MIC values. The clustering was performed using the complete linkage method. […] For detailed information on antibiotic and bacterial strain abbreviations, see Supplementary Data 1. Source data are provided as a Source Data file.
(§3) A robotic liquid handling system was used to automatically prepare a 11 to 16-step serial dilution in 384-well microtiter plates (Greiner). A final concentration of 5 × 10^5 bacterial cells per mL were inoculated into each well containing 60 µL MHB medium. Bacterial cultures were incubated at 37 °C with continuous shaking (Infors shaker, 900 rpm with 3 mm throw) for 18 hours (2 replicates from each). Cell growth was monitored by measuring the optical density (OD600 values, using Biotek Synergy microplate reader). MIC was defined as the antibiotic concentration of complete growth inhibition (i.e., OD600 < 0.05). Relative MIC was calculated as follows:1 relativeMIC=MICevolved/MICancestor […]
(§4) Supplementary Figure 6. Susceptibility of Polymyxin B resistant lines to other ST and DT […]
(§5) dividing the MIC of the evolved line by that of the corresponding ancestor) of 12 polymyxin B resistant lines to ST and DT permeabilizer antibiotics used in this study. Each data point represents a distinct adaptive laboratory evolved polymyxin B resistant line. Boxplots show the median, first and third quartiles, with whiskers showing the 5th and 95th percentiles. P values were calculated using Dunn's post-hoc test with Benjamini-Hochberg correction (NS indicates p > 0.05, ** / **** indicates p < 0.01 / 0.0001, respectively). The resistance level of polymyxin B resistant lines to polymyxin B (PMB), […]
(§6) For detailed information on antibiotic and bacterial strain abbreviations, see Supplementary Table 1. Source data are provided as a Source […]
(§7) (1 picture or pasted object on this page, not shown here)

[2] = test system: polymyxin B-resistant lines of P. aeruginosa (PA-SEN); experiment: as above; format: cell-based, Pseudomonas aeruginosa
From the text: as §1, §2, §3, §4, §5, §6, §7

[3] = AB-SEN, polymyxin B-resistant evolved line 2, MIC evolved/MIC ancestor
[4] = AB-SEN, polymyxin B-resistant evolved line 6, MIC evolved/MIC ancestor
[5] = AB-SEN, polymyxin B-resistant evolved line 9, MIC evolved/MIC ancestor
[6] = polymyxin B-resistant evolved line 2 of AB-SEN, MIC relative to ancestor
[7] = polymyxin B-resistant evolved line 6 of AB-SEN, MIC relative to ancestor
[8] = polymyxin B-resistant evolved line 9 of AB-SEN, MIC relative to ancestor
[9] = PA-SEN, polymyxin B-resistant evolved line 1, MIC evolved/MIC ancestor
[10] = PA-SEN, polymyxin B-resistant evolved line 5, MIC evolved/MIC ancestor
[11] = PA-SEN, polymyxin B-resistant evolved line 7, MIC evolved/MIC ancestor
[12] = polymyxin B-resistant evolved line 1 of PA-SEN, MIC relative to ancestor
[13] = polymyxin B-resistant evolved line 5 of PA-SEN, MIC relative to ancestor
[14] = polymyxin B-resistant evolved line 7 of PA-SEN, MIC relative to ancestor

| Compound | Relative MIC [1, 3] | Relative MIC [1, 4] | Relative MIC [1, 5] | Relative MIC [1, 6] | Relative MIC [1, 7] | Relative MIC [1, 8] | Relative MIC [2, 9] | Relative MIC [2, 10] | Relative MIC [2, 11] | Relative MIC [2, 12] | Relative MIC [2, 13] | Relative MIC [2, 14] | also measured |
| --- | --- | --- | --- | --- | --- | --- | --- | --- | --- | --- | --- | --- | --- |
| Tridecaptin M152-P3 |  |  |  |  |  |  |  |  |  |  |  |  | Survival rate (log10) (A. baumannii; listed as TRD): -2.876 log10 and -2.59 log10 and -2.704 log10 and -2.72 log10 and -2.696 log10 |
| CNC(C)C1CCC(N)C(OC2C(N)CC(N)C(OC3OCC(C)(O)C(NC)C3O)C2O)O1 (centres unmarked) [Gentamicin] |  |  |  |  |  |  |  |  |  |  |  |  | Survival rate (log10) (A. baumannii; listed as GEN): -1.432 log10 and -1.215 log10 and -1.434 log10 and -1.4437 log10 and -1.516 log10 |
| CC(C)c1ccc(Cn2ccc3c4c(N)nc(NC5CC5)nc4ccc32)cc1 [SCH79797] | 1 | 0.5 | 1 | 1 | 0.5 | 1 |  |  |  |  |  |  | bacterial survival after toxic antibiotic exposure (A. baumannii; 10xMIC for 4 hours): eliminated the entire bacterial population; Survival rate (log10) (A. baumannii): -6 log10 |
| colistin | 32 | 512 | 32 | 32 | 512 | 32 | 32 | 32 | 16 | 32 | 32 | 16 | Survival rate (log10) (A. baumannii; listed as COL): -3.481 log10 and -3.59 log10 and -3.495 log10 and -4.987 log10 and -3.369 log10 |
| Nc1nc(-n2cc(C(=O)O)c(=O)c3cc(F)c(N4CC(O)C4)c(Cl)c32)c(F)cc1F [Delafloxacin] |  |  |  |  |  |  |  |  |  |  |  |  | Survival rate (log10) (A. baumannii; listed as DEL): -1.416 log10 and -1.661 log10 and -1.352 log10 and -1.5252 log10 and -1.635 log10 |
| CN[C@@H]1[C@@H](O[C@H]2O[C@H](CO)[C@@H](N)[C@H](O)[C@H]2O)OC2C[C@@H](N)[C@@H](O[C@H]3[C@H](O)[C@@H](O)[C@H](N)C[C@@H]3N)OC2[C@@H]1O (some centres unmarked) [Apramycin] |  |  |  |  |  |  |  |  |  |  |  |  | Survival rate (log10) (A. baumannii; listed as APR): -1.378 log10 and -1.536 log10 and -1.241 log10 and -1.504 log10 and -1.3851 log10 |
| POL7306 | 32 | 32 | 8 | 32 | 32 | 8 | 1 | 1 | 4 | 1 | 1 | 4 | Survival rate (log10) (A. baumannii; listed as POL): -3.645 log10 and -4.987 log10 and -2.756 log10 and -3.625 log10 and -3.539 log10 |
| CN(C)[C@@H]1C(O)=C(C(N)=O)C(=O)[C@@]2(O)C(O)=C3C(=O)c4c(O)c(NC(=O)CN5CCCC5)cc(F)c4C[C@H]3C[C@@H]12 [Eravacycline] |  |  |  |  |  |  |  |  |  |  |  |  | Survival rate (log10) (A. baumannii; listed as ERA): -1.499 log10 and -1.238 log10 and -1.644 log10 and -1.596 log10 and -1.425 log10 |
| CC[C@H](C)CCCCC(=O)N[C@@H](CCN)C(=O)N[C@H](C(=O)N[C@@H](CCN)C(=O)N[C@H]1CCNC(=O)[C@H]([C@@H](C)O)NC(=O)[C@H](CCN)NC(=O)[C@H](CCN)NC(=O)[C@H](CC(C)C)NC(=O)[C@@H](Cc2ccccc2)NC(=O)[C@H](CCN)NC1=O)[C@@H](C)O [Polymyxin B] (X2-[Dab]T[Dab][Dab][Dab][dF]L[Dab][Dab]T; lactam 4-C (inferred); N-terminus assumed) | 64 | 1024 | 64 | 64 | 1024 | 64 | 32 | 32 | 8 | 32 | 32 | 8 | Survival rate (log10) (A. baumannii; listed as PMB): -3.38 log10 and -2.762 log10 and -3.033 log10 and -2.9785 log10 and -2.974 log10 |
| C[C@@H](O)[C@H]1C(=O)N2C(C(=O)O)=C(S[C@H]3CC[S@@+]([O-])C3)S[C@H]12 [Sulopenem] |  |  |  |  |  |  |  |  |  |  |  |  | Survival rate (log10) (A. baumannii; listed as SUO): -2.317 log10 and -2.432 log10 and -2.658 log10 and -2.635 log10 |
